Results taken from publication PMC7993378, “Inhibition of bacterial and human zinc-metalloproteases by bisphosphonate- and catechol-containing compounds” (Journal of Enzyme Inhibition and Medicinal Chemistry, 2021).
Read-outs that look alike come from different tables or passages of the source.

Columns and labels:
[1] = biological target: APMA-activated recombinant MMP-9 (rMMP-9(A)) (Homo sapiens, UniProt P14780); assay: rMMP-9(A) inhibition in Tris-HCl buffer with varied preincubation time, followed continuously for 3 h; type: biochemical; conditions: 100 µM, 0.1 M Tris-HCl pH 7.5, N = 4
Chain of APMA-activated recombinant MMP-9 (rMMP-9(A)) (P14780 107-444 limits assumed): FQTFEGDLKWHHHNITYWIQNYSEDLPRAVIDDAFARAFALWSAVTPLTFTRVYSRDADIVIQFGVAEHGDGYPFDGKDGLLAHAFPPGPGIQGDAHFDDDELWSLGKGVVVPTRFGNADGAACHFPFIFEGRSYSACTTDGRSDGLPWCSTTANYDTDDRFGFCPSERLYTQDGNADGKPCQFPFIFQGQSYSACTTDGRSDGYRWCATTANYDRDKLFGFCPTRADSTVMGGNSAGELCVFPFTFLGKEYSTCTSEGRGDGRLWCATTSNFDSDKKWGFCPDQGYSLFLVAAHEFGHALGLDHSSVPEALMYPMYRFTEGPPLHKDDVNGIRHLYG
Excerpt: Except for ML33, all catechol derivatives have previously been tested for binding to MMP-2, MMP-8 and MMP-9[60]. […] The Ki values for MMP-9 in the present study were higher than the IC50 values in the previous study, the exception was MT336 for which we obtained a lower value. It is not easy to point out a single factor in the experiments contributing to deviations between the studies. Both studies used a pH of 7.5 but the buffer compositions were slightly different. […] Tauro et al.[60] used a commercial active MMP-9 produced in E-coli that only contained the catalytic domain and the fibronectin-like (FnII) module. […] A factor that may contribute to differences is that after preincubation of MMP-9 with catechol derivatives and adding of the substrate for starting the reaction, we followed the reaction continuously for 30 min, while Tauro et al.[60] used an endpoint assay allowing the reaction to proceed for 2 to 4 h before the fluorescence was measured. We did some tests to determine if some of these differences could affect the binding results. In the test experiments, we used rMMP-9(A) which differs from the MMP-9(T) by a slightly different N-terminal and a largely truncated C-terminal HPX domain[57]. One hundred µM of BF466 was tested where the 0.1 M Hepes buffer pH 7.5 was exchanged to a 0.1 M Tris-HCl buffer pH 7.5. The rMMP-9(A) was preincubated with BF466 for 0, 15 and 30 min at 37 °C and the reaction was started by the addition of the substrate McaPLGL(Dpa)AR-NH2 (4 µM in the assay) following the reaction continuously for 3 h. The controls without BF466 were treated identically. […] The reaction was allowed to proceed for 4 h, and the reaction was stopped by addition of EDTA (end concentration 10 mM) and the relative fluorescence intensity determined.
The expression and purification of recombinant human full-length proMMP-9 (rpMMP-9) from Sf9 insect cells were performed as described previously. […] The amount of active MMP-9 was determined by active site titration using galardin also described previously.

[2] = biological target: T1, Human MT1-MMP/MMP-14 (catalytic domain) (Homo sapiens, UniProt P50281); assay: MMP-14 inhibition, continuous initial rate assay with McaPLGL(Dpa)AR-NH2 after 15 min preincubation; type: biochemical; conditions: for inhibition at 100 µM: 100 μM compound, 15 min preincubation at 37 °C, 4 μM substrate, read-out: inhibition (reduction of activity) of MMP-14; for Ki: substrate McaPLGL(Dpa)AR-NH2 4 µM, 4–6 experiments, read-out: Ki ± sd MMP-14
T1 construct: Human MT1-MMP/MMP-14 (catalytic domain); purchased Calbiochem (San Diego, CA, USA)
Method: (§1) The inhibitorial power of 100 μM of the eight catechol containing compounds was tested against the two human metalloproteases MMP-9(T) and MMP-14 and the three bacterial metalloproteases ALN, PLN and TLN (Figure 1). In order to detect putative slow and slow-tight binding, the catechol derivatives were first incubated along with the enzyme for 15 min at 37 °C. In controls without inhibitor present, enzymes and buffer were preincubated under identical conditions. Thereafter, the enzyme reaction was started by adding the relevant […] substrate and the rate was followed continuously for 30 min. […] The activity was reduced with more than 50%, by MT336 for the two MMPs, by BF482 for MMP-9(T) and by ML33 for ALN (Figure 1). In all other inhibitory studies with catechol containing compounds, the activity was reduced between 0 and 45%.
(§2) To assure that this is correct, the inhibitors BF471 and BF489 were tested against varying McaRPPGFSAFK(Dnp)-OH using TLN as described in the Experimental section. […] It should be noted that the reaction was started by adding the enzyme to the substrate-inhibitor mixtures. In the case of slow binding, the full potential of these inhibitors would not be realised by this inhibitory assay. When the activity was reduced by more than […], experiments were performed with varying concentrations of the catechol derivatives. IC50 values were obtained from dose response plots, and Ki values were determined from the IC50 values based on substrate competitive inhibition. By the use of Ki values, we can compare the binding strength of the compounds for the different enzymes and not only comparing the compounds ability to bind one enzyme. There are several possible explanations for the deviation in determined Ki value of BF471 and BF489 for TLN from the dose response plots and the double inverse plots.
(§3) The various inhibitors were dissolved in 100% DMSO giving an inhibitor concentration of 10 mM. All the inhibitory and control experiments contained a total and fixed concentration of 1.0% DMSO. […] The fixed enzyme concentration were as follows; 0.28 nM MMP-9(T), 0.05 nM MMP-9(A), 1.0 nM MMP-14, 1.4 nM ALN, 0.5 nM PLN and 0.21 nM TLN. Enzymes with and without inhibitors were pre-incubated for 15 min at 37 °C, the initial rate assays were started by adding the substrate and the reaction was followed for 30 min. Assays were performed using a Spectra Max Gemini EM micro-plate reader (Molecular Devices) or a Clario Star micro plate reader (CLARIOstar® BMG LABTECH). Assays were performed at 37 °C, using an excitation wavelength of 320 nm and an emission wavelength of 405 nm with a slit width of 10 nm. The IC50 values were calculated either in Sigma Plot (Enzyme kinetics 1.3 module) or in Graph Pad Prism 5 using Equations (1) or (2) depending on the concentration span of the used inhibitor: (1) vi/v0= 1/(1+ 10^(pIC50−pI)) (2) vi/v0= 1/(1+ [I]/IC50) where vi is the enzyme activity in the presence of inhibitor, v0 the activity in the absence of inhibitor, pI=−log [Inhibitor] in M and pIC50 = −log IC50 in M. All experiments were performed in at least triplicate.

thermolysin (TLN) = biological target: T2, thermolysin (TLN) (Bacillus thermoproteolyticus, UniProt P00800); assay: TLN inhibition, continuous initial rate assay with McaRPPGFSAFK(Dnp)-OH after 15 min preincubation; type: biochemical; conditions: for inhibition at 100 µM: 100 μM compound, 15 min preincubation at 37 °C, 4 μM substrate, read-out: inhibition (reduction of activity) of TLN; for Ki: substrate McaRPPGFSAFK(Dnp)-OH 4 µM, 4–6 experiments, read-out: Ki ± sd TLN
T2 construct: purchased Calbiochem (San Diego, CA, USA)
T2 sequence (P00800 233-548): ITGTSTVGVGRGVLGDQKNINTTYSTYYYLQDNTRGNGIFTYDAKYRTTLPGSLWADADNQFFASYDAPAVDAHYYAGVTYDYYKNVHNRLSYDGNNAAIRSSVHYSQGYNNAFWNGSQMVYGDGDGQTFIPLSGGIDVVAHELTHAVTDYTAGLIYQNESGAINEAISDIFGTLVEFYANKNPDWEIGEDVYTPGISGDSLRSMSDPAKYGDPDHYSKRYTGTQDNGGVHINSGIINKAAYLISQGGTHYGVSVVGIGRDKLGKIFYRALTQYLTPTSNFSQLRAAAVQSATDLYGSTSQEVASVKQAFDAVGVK
Method: as §1, §2, §3

TLN = biological target: T3, TLN (Bacillus thermoproteolyticus, UniProt P00800); assay: TLN inhibition against varying McaRPPGFSAFK(Dnp)-OH, reaction started by adding enzyme (double inverse plots); type: biochemical; conditions: no preincubation, read-out: Ki TLN from varying substrate
T3 construct: purchased Calbiochem (San Diego, CA, USA)
T3 sequence (P00800 233-548): as above
Method: as §2

aureolysin (ALN) = biological target: T4, aureolysin (ALN) (Staphylococcus aureus, UniProt P81177); assay: ALN inhibition, continuous initial rate assay with McaRPPGFSAFK(Dnp)-OH after 15 min preincubation; type: biochemical; conditions: for inhibition at 100 µM: read-out: inhibition (reduction of activity) of ALN, 100 μM compound, 15 min preincubation at 37 °C, 4 μM substrate
T4 construct: purchased BioCentrum Ltd (Kraków, Poland)
T4 sequence (P81177 209-509): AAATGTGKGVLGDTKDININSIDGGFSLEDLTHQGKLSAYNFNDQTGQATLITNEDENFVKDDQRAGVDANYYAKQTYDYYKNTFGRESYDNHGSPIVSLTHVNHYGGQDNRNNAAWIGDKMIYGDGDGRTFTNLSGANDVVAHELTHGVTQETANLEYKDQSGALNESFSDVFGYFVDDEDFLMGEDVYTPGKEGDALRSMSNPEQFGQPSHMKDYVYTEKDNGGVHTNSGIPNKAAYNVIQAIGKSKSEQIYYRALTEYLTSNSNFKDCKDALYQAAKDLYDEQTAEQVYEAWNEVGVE
Method: as §1, §2, §3

[3] = biological target: T5, trypsin-activated MMP-9 from THP-1 cells (MMP-9(T)) (Homo sapiens, UniProt P14780); assay: MMP-9(T) inhibition, continuous initial rate assay with McaPLGL(Dpa)AR-NH2 after 15 min preincubation; type: biochemical; conditions: for inhibition at 100 µM: read-out: inhibition (reduction of activity) of MMP-9(T); for Ki: substrate McaPLGL(Dpa)AR-NH2 4 µM, 4–6 experiments, read-out: Ki ± sd MMP-9(T)
T5 construct: endogenous in cells; host or cells: THP-1 cells stimulated with PMA
T5 sequence (P14780 107-707 limits assumed): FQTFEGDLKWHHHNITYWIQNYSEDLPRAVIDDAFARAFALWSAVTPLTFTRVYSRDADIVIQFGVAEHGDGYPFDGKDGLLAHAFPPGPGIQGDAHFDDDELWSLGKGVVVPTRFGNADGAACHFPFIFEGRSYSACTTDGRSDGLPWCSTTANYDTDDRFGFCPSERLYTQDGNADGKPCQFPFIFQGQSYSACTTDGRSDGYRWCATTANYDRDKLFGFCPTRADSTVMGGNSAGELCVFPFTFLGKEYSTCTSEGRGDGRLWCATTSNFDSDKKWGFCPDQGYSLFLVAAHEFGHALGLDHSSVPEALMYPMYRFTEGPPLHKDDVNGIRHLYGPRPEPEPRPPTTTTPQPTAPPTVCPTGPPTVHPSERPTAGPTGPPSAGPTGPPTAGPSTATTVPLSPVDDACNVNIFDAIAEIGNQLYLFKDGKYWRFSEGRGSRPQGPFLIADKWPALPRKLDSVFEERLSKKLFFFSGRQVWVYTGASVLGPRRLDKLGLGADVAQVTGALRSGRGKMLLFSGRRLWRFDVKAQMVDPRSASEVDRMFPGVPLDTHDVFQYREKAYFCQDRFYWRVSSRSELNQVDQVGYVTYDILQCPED
Method: as §1, §2
The purified proMMP-9 was activated by trypsin, by mixing approximately 300 µg of proMMP-9 with trypsin (31 μg/ml) for 10 min at 37 °C in 0.1 M Hepes pH 7.5, 0.005% Brij35% and 10 mM CaCl2. The activation and processing of MMP-9 were terminated by adding a 50 times excess of SBTI (2.7 mg/ml) in relation to trypsin and after 10 min incubation at room temperature, the mixture was transferred and kept on ice during the kinetic and inhibition kinetic measurements. After activation, the activity was determined with 10 µM of McaPLGL(Dpa)AR-NH2 in 0.1 M Hepes pH 7.5, 0.005% Brij35% and 10 mM CaCl2 in a total assay volume of 100 µL, at 37 °C. Initial rates were measured at an excitation wavelength of 320 nm and an emission wavelength of 405 nm with a slit width of 10 nm using a Perkin Elmer LS 50 Luminescence spectrometer and the FL WinLab Software Package (Perkin Elmer). The amount of active MMP-9 was determined by active site titration using galardin as described previously.
The various inhibitors were dissolved in 100% DMSO giving an inhibitor concentration of 10 mM. All the inhibitory and control experiments contained a total and fixed concentration of 1.0% DMSO. […] The fixed enzyme concentration were as follows; 0.28 nM MMP-9(T), 0.05 nM MMP-9(A), 1.0 nM MMP-14, 1.4 nM ALN, 0.5 nM PLN and 0.21 nM TLN. Enzymes with and without inhibitors were pre-incubated for 15 min at 37 °C, the initial rate assays were started by adding the substrate and the reaction was followed for 30 min. Assays were performed using a Spectra Max Gemini EM micro-plate reader (Molecular Devices) or a Clario Star micro plate reader (CLARIOstar® BMG LABTECH). Assays were performed at 37 °C, using an excitation wavelength of 320 nm and an emission wavelength of 405 nm with a slit width of 10 nm. […]

pseudolysin (PLN) = biological target: T6, pseudolysin (PLN) (Pseudomonas aeruginosa, UniProt P14756); assay: PLN inhibition, continuous initial rate assay with McaRPPGFSAFK(Dnp)-OH after 15 min preincubation; type: biochemical; conditions: for inhibition at 100 µM: read-out: inhibition (reduction of activity) of PLN
T6 construct: purchased Calbiochem (San Diego, CA, USA)
T6 sequence (P14756 198-498): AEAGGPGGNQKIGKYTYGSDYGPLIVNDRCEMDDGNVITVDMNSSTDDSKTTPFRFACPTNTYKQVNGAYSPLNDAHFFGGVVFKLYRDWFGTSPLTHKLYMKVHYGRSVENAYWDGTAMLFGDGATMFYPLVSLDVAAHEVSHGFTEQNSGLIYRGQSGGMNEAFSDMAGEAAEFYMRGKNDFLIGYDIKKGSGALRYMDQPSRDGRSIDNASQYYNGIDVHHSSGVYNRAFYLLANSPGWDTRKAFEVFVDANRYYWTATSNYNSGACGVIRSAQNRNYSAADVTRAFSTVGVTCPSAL
Method: as §1, §2, §3

[4] = system: COc1ccc2c(CC(=O)N[C@@H](CCCNC(=N)N)C(=O)N3CCC[C@H]3C(=O)N3CCC[C@H]3C(=O)NCC(=O)N[C@@H](Cc3ccccc3)C(=O)N[C@@H](CO)C(=O)N[C@@H](C)C(=O)N[C@@H](Cc3ccccc3)C(=O)N[C@@H](CCCCNc3ccc([N+](=O)[O-])cc3[N+](=O)[O-])C(=O)O)cc(=O)oc2c1; assay: purified protein, by the assay type; conditions: other: 1% DMSO; regarded as uncertain, highest substrate concentration 10 µM; pH 7.5
Method: For TLN, the Km value was also determined with a DMSO concentration of 2%.
Km values were determined for McaPLGL(Dpa)AR-NH2 with APMA-activated recombinant MMP-9 (rMMP-9(A)), trypsin-activated MMP-9 from THP-1 cells (MMP-9(T)) and MMP-14, and for Mca[sequence](Dnp)-OH with ALN, PLN and TLN. Substrate concentrations used were 1–10 µM in a total volume of 100 µL of 0.1 M Hepes pH 7.5 containing 10 mM CaCl2, 0.005% Brij-35 and 1.0% DMSO. […] Initial rate experiments were performed as described above for the determination of enzyme activity of MMP-9 during activation and the same excitation and emission wavelengths were used for both substrates.

[5] = catechol compounds, Ki from IC50, substrate competitive
[6] = 100 μM compound, 15 min preincubation at 37 °C, 4 μM substrate

| Compound | inhibition at 100 µM [2] [%] | inhibition at 100 µM (aureolysin (ALN)) [%] | inhibition at 100 µM [3, 6] [%] | Ki [3, 5] [µM] | Ki (pseudolysin (PLN)) [µM] | also measured |
| --- | --- | --- | --- | --- | --- | --- |
| O=S(=O)(NCc1cccc(O)c1O)c1ccc(-c2ccccc2)cc1 [BF466] | – | – | – | – | – | vi/v0 rMMP-9(A) ([1]; preincubation 0 min at 37 °C): 0.74 ± 0.04; vi/v0 rMMP-9(A) ([1]; preincubation 15 min at 37 °C): 0.68 ± 0.02; vi/v0 rMMP-9(A) ([1]; preincubation 30 min at 37 °C): 0.73 ± 0.05 |
| O=S(=O)(Nc1ccc(O)c(O)c1)c1ccc(-c2ccccc2)cc1 [BF471] | > 50 | > 50 | > 50 | 13 ± 2 | 9 ± 3 | inhibition at 100 µM (thermolysin (TLN)): > 50%; Ki (thermolysin (TLN); [5]): 13 ± 2 µM; Ki (TLN): 57 ± 6 µM; Ki (aureolysin (ALN)): 49 ± 5 µM; inhibition at 100 µM (pseudolysin (PLN)): > 50% |
| O=S(=O)(NCc1cccc(O)c1O)c1ccc(Br)cc1 [BF482] | – | – | > 50 | – | – | inhibition (reduction of activity) of PLN (pseudolysin (PLN); [6]): did not affect |
| O=S(=O)(NCc1ccc(O)c(O)c1)c1ccc(Br)cc1 [BF486] | – | – | – | – | – | inhibition (reduction of activity) of MMP-9(T) [3, 6]: did not affect |
| O=S(=O)(Nc1ccc(O)c(O)c1)c1ccc(Br)cc1 [BF489] | > 50 | > 50 | > 50 | 12.6 ± 0.6 | 16 ± 3 | Ki [2, 5]: 8.3 ± 0.6 µM; inhibition at 100 µM (thermolysin (TLN)): > 50%; Ki (thermolysin (TLN); [5]): 14 ± 5 µM; Ki (TLN): 73 ± 11 µM; inhibition at 100 µM (pseudolysin (PLN)): > 50% |
| COc1ccc(S(=O)(=O)NC(P(=O)(O)O)P(=O)(O)O)cc1 [LS4] | – | – | – | – | 58 ± 4 | – |
| O=S(=O)(Nc1cccc(O)c1O)c1ccc(-c2ccccc2)cc1 [ML32] | > 50 | > 50 | > 50 | 51 ± 17 | 38 ± 8 | Ki [2, 5]: 19 ± 0.8 µM; inhibition at 100 µM (pseudolysin (PLN)): > 50% |
| COc1ccc(S(=O)(=O)Nc2cccc(O)c2O)cc1 [ML33] | – | > 50 | – | – | – | – |
| O=P(O)(O)C(Nc1ccc(Cl)cc1)P(=O)(O)O [ML45] | – | – | – | – | 37 ± 6 | Ki ([2]; bisphosphonates): 17 ± 1 µM |
| O=C(NCc1ccc(-c2ccccc2)cc1)c1cccc(O)c1O [MT336] | > 50 | – | > 50 | 13 ± 1 | – | Ki [2, 5]: 12 ± 1 µM |
| O=P(O)(O)C(Nc1ccc(-c2ccccc2)cc1)P(=O)(O)O [MT363] | – | – | – | – | 12 ± 4 | Ki ([2]; bisphosphonates): 7.2 ± 0.6 µM; Ki (thermolysin (TLN); bisphosphonates): 7 ± 1 µM; Ki ([3]; bisphosphonates): 6.6 ± 0.4 µM |
| O=[N+]([O-])c1ccc(S(=O)(=O)NC(P(=O)(O)O)P(=O)(O)O)cc1 [RC2] | – | – | – | – | 22 ± 3 | Ki (thermolysin (TLN); bisphosphonates): 16.2 ± 0.4 µM |
| ALN (Staphylococcus aureus) | – | – | – | – | – | Km [4]: 76 ± 7 µM |
